Here are results for three compounds from paper PMC8343194 (Acta Pharmaceutica Sinica. B, 2021).

One data set deals with MDA435/LCC6 MDR1 cells. Nature of the data set: Sulforhodamine B cytotoxicity / MDR reversal assay, ABCB1-transfected cells. Particulars: for IC50: Homo sapiens. The format is cell-based, human.
The test system of another data set is MDA435/LCC6 cells. Nature of the data set: Sulforhodamine B cytotoxicity assay, parental cells. Format: cell-based. Conditions: Homo sapiens.
The nature of data set [1]: Pharmacokinetic study of paclitaxel with oral type I POPs. Format: in vivo, Sprague–Dawley rats.
Setting [2] is: compound at 0.4 μmol/L, MDA435/LCC6 MDR1.
Where [3] appears, read: Sprague-Dawley, rat, plasma, iv, 6 mg/kg.

Each structure is given as a SMILES string. Where two headings read alike, the source gives them in different places.

In the case of `C/C=C/C[C@@H](C)C(=O)[C@H]1C(=O)N[C@@H](C(C)C)C(=O)N(C)CC(=O)N(C)[C@@H](CC(C)C)C(=O)N[C@@H](C(C)C)C(=O)N(C)[C@@H](CC(C)C)C(=O)N[C@@H](C)C(=O)N[C@H](C)C(=O)N(C)[C@@H](CC(C)C)C(=O)N(C)[C@@H](CC(C)C)C(=O)N(C)[C@@H](C(C)C)C(=O)N1C` [PSC833, valspodar], in the data set on MDA435/LCC6 MDR1 cells (setting [2]), the “Fold change of doxorubicin IC50 (alone/combination)” value turned out to be 11 and the “Fold change of paclitaxel IC50 (alone/combination)” value was 59.
As usually defined, the IC50 is the point on the concentration scale where inhibition reaches its midpoint. For the compound `COc1cccc2c1C(=O)c1c(O)c3c(c(O)c1C2=O)C[C@@](O)(C(=O)CO)C[C@@H]3O[C@H]1C[C@H](N)[C@H](O)[C@H](C)O1` [Doxorubicin, doxorubicin], the IC50 in the data set with MDA435/LCC6 cells (MDA-435/LCC6, read-out: IC50 of doxorubicin) worked out at 76 ± 8 nM; in the data set with MDA435/LCC6 MDR1 cells (read-out: IC50 of doxorubicin), 695 ± 40 nM.
One may read the half-life as the time in which the quantity being followed falls by half. Read a low half-life as rapid decline. For `CC(=O)O[C@H]1C(=O)[C@@]2(C)[C@H]([C@H](OC(=O)c3ccccc3)[C@]3(O)C[C@H](OC(=O)[C@H](O)[C@@H](NC(=O)c4ccccc4)c4ccccc4)C(C)=C1C3(C)C)[C@]1(OC(C)=O)CO[C@@H]1C[C@@H]2O` [Paclitaxel, paclitaxel], the IC50 was 1.36 ± 0.14 nM in the data set with MDA435/LCC6 cells (MDA-435/LCC6, read-out: IC50 of paclitaxel) and 120 ± 9.44 nM in the data set with MDA435/LCC6 MDR1 cells (read-out: IC50 of paclitaxel). In data set [1] (6 consecutive days of paclitaxel alone or with type I POPs mixture), the “behavior and body weight of rats” value is “no abnormality in behavior and no significant weight losses”. For the same compound, the “brain accumulation of paclitaxel” value in data set [1] (24 h after last dose, 6 consecutive days) is given as “no brain accumulation of paclitaxel”. Also, the half-life in data set [1] (Sprague-Dawley, rat, plasma, intravenous) was 4.2 ± 0.3 h; in data set [1] (setting [3]), 3.2 ± 0.7 h. This compound also had a clearance in data set [1] (setting [3]) of 91.7 mL/min/kg. The “Ctrough of paclitaxel after the last dose” value in data set [1] (paclitaxel iv 6 mg/kg/day ± type I POPs po 50 mg/kg/day for 6 consecutive days) was 15.8 ± 6.6 nM.
